Results taken from patent publication EP1803452A1, “ESTER DERIVATIVE AND PHARMACEUTICAL USE THEREOF” (Japan Tobacco, Inc., priority 2004, dated 2006).

What was measured:
[1] = Stability test in buffer (pH 7.4); format: physicochemical; details: phosphate buffer/acetonitrile 7:3, 100 mM potassium phosphate buffer (pH 7.4) and acetonitrile 7:3 (v/v), LC/MS; for remaining at 10 min: 10 minutes at 37°C, read-out: Buf. remaining rate (%/10min); for remaining at 1 h: 60 minutes at 37°C, read-out: Buf. remaining rate (%/60min)
Summary of the method: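 Parent compound measured by LC/MS after 0, 10 or 60 min at 37°C in a 7:3 (v/v) mix of 100 mM potassium phosphate buffer and acetonitrile, with the reaction stopped by acetonitrile plus formic acid (final 0.1%). Percentage remaining is expressed relative to the zero-time amount.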

[2] = Metabolic stability test in plasma; format: in vitro ADME, human; details: LC/MS; for remaining at 10 min: unchanged form after 10 minutes at 37°C in human plasma, read-out: Remaining rate in human plasma (%/10min); for remaining at 1 h: unchanged form after 60 minutes at 37°C in human plasma, read-out: Remaining rate in human plasma (%/60min)
Summary of the method: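 Remaining rate (%) versus zero time was derived from LC/MS measurement of parent compound after centrifugation. Plasma from human, mouse and hamster received DMSO-dissolved compound and was held at 37°C for 0, 10 or 60 minutes before acetonitrile containing formic acid (final 0.1%) stopped the reaction.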

[3] = Metabolic stability test in liver S9; format: in vitro ADME; details: pH 7.4, human liver S9 2 mg protein/mL, LC/MS; for remaining at 10 min: unchanged form after 10 minutes at 37°C, read-out: Remaining rate in human liver S9 (%/10min); for remaining at 1 h: unchanged form after 60 minutes at 37°C, read-out: Remaining rate in human liver S9 (%/60min)
Summary of the method: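 Compound from DMSO solution was incubated at 37°C with human liver S9 (final 2 mg protein/mL) in 100 mM potassium phosphate pH 7.4 with an NADPH-regenerating system for 0, 10 and 60 minutes. Reactions were stopped with acetonitrile/0.1% formic acid. Unchanged compound was measured by LC/MS as remaining rate (%) relative to zero time.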

| remaining at 10 min [1] [%] | remaining at 1 h [1] [%] | remaining at 10 min [2] [%] | remaining at 1 h [2] [%] | remaining at 10 min [3] [%] | remaining at 1 h [3] [%] | SMILES |
| --- | --- | --- | --- | --- | --- | --- |
| 101 | 103 | 13 | 0 | 4 | 2 | CCOC(=O)c1cc(OC)c(OC(=O)CCCc2ccc(NC(=O)c3ccc(C)nc3-c3ccc(C(F)(F)F)cc3)c(C(=O)N(C)C)c2)c(OC)c1 [Compound 1-43, 4-[4-(3-dimethylcarbamoyl-4-{[6-methyl-2-(4-trifluoromethylphenyl)pyridine-3-carbonyl]amino}phenyl)butyryloxy]-3,5-dimethoxybenzoic acid ethyl ester] |
| 99 | 102 | 26 | 0 | 5 | 0 | COC(=O)c1cc(C)c(OC(=O)CCCc2ccc(NC(=O)c3ccc(C)nc3-c3ccc(C(F)(F)F)cc3)c(C(=O)N(C)C)c2)c(C(=O)OC)c1 [Compound 1-110, 4-[4-(3-dimethylcarbamoyl-4-{[6-methyl-2-(4-trifluoromethylphenyl)pyridine-3-carbonyl]amino}phenyl)butyryloxy]-5-methylisophthalic acid dimethyl ester] |
| 99 | 99 | 39 | 0 | 0 | 0 | CN(C)C(=O)c1cc(CCCC(=O)Oc2ccc(C(=O)OCc3cccnc3)cc2)ccc1NC(=O)c1ccccc1-c1ccc(C(F)(F)F)cc1 [Compound 1-83, 4-[4-(3-dimethylcarbamoyl-4-((4'-trifluoromethylbiphenyl-2-carbonyl)amino}phenyl)butyryloxy]benzoic acid pyridin-3-ylmethyl ester] |
| 101 | 96 | 78 | 17 | 14 | 5 | CN(C)C(=O)c1cc(CCCC(=O)Oc2ccc(-c3nnn(CC(=O)OCc4ccccc4)n3)cc2)ccc1NC(=O)c1ccccc1-c1ccc(C(F)(F)F)cc1 [Compound 1-104, 4-(3-dimethylcarbamoyl-4-{(4'-trifluoromethylbiphenyl-2-carbonyl)amino}phenyl)butyric acid 4-(2-benzyloxycarbonylmethyl-2H-tetrazol-5-yl)phenyl ester] |
| 99 | 102 | 39 | 0 | 5 | 2 | COC(=O)c1cc(C)c(OC(=O)CCCc2ccc(NC(=O)c3ccc(C)nc3-c3ccc(C(F)(F)F)cc3)c(C(=O)N(C)C)c2)c(OC)c1 [Compound 1-46, 4-[4-(3-dimethylcarbamoyl-4-{[6-methyl-2-(4-trifluoromethylphenyl)pyridine-3-carbonyl]amino}phenyl)butyryloxy]-3-methoxy-5-methylbenzoic acid methyl ester] |
| 101 | 101 | 78 | 19 | 10 | 0 | CCc1cc(C(=O)OC)cc(Cl)c1OC(=O)CCCc1ccc(NC(=O)c2ccc(C)nc2-c2ccc(C(F)(F)F)cc2)c(C(=O)N(C)C)c1 [Compound 1-73, 3-chloro-4-[4-(3-dimethylcarbamoyl-4-{[6-methyl-2-(4-trifluoromethylphenyl)pyridine-3-carbonyl]amino}phenyl)butyryloxy]-5-ethylbenzoic acid methyl ester] |
| 98 | 98 | 41 | 0 | 1 | 0 | CC(C)OC(=O)c1ccc(OC(=O)CCCc2ccc(NC(=O)c3ccncc3-c3ccc(C(F)(F)F)cc3)c(C(=O)N(C)C)c2)cc1 [Compound 1-29, 4-[4-(3-dimethylcarbamoyl-4-{[3-(4-trifluoromethylphenyl)pyridine-4-carbonyl]amino}phenyl)butyryloxy]benzoic acid isopropyl ester] |
| 100 | 105 | 31 | 0 | 0 | 0 | CN(C)C(=O)c1cc(CCCC(=O)Oc2ccc(C(=O)OCCN3CCCC3=O)cc2)ccc1NC(=O)c1ccccc1-c1ccc(C(F)(F)F)cc1 [Compound 1-91, 4-[4-(3-dimethylcarbamoyl-4-{(4'-trifluoromethylbiphenyl-2-carbonyl)amino}phenyl)butyryloxy]benzoic acid 2-(2-oxopyrrolidin-1-yl)ethyl ester] |
| 102 | 102 | 53 | 0 | 0 | 0 | CCOC(=O)c1ccc(OC(=O)CCCc2ccc(NC(=O)c3ccccc3-c3ccc(C(F)(F)F)cc3)c(C(=O)N(C)C)c2)cc1 [Compound 1-6, 4-(4-{3-dimethylcarbamoyl-4-[(4'-trifluoromethylbiphenyl-2-carbonyl)amino]phenyl}butyryloxy)benzoic acid ethyl ester] |
| 102 | 102 | 12 | 0 | 0 | 0 | Cc1cccc(COC(=O)c2ccc(OC(=O)CCCc3ccc(NC(=O)c4ccc(C)nc4-c4ccc(C(F)(F)F)cc4)c(C(=O)N(C)C)c3)cc2)n1 [Compound 1-100, 4-[4-(3-dimethylcarbamoyl-4-([6-methyl-2-(4-trifluoromethylphenyl)pyridine-3-carbonyl]amino}phenyl)butyryloxy]benzoic acid 6-methylpyridin-2-ylmethyl ester] |
| 99 | 100 | 50 | 1 | 5 | 2 | CC(C)OCCOC(=O)c1ccc(OC(=O)CCCc2ccc(NC(=O)c3ccccc3-c3ccc(C(F)(F)F)cc3)c(C(=O)N(C)C)c2)cc1 [Compound 1-76, 4-[4-(3-dimethylcarbamoyl-4-{(4'-trifluoromethylbiphenyl-2-carbonyl)amino}phenyl)butyryloxy]benzoic acid 2-isopropoxyethyl ester] |
| 99 | 98 | 71 | 12 | 0 | 0 | CCCOC(=O)c1ccc(OC(=O)CCCc2ccc(NC(=O)c3ccccc3-c3ccc(C(F)(F)F)cc3)c(C(=O)N(C)C)c2)cc1 [Compound 1-8, 4-(4-{3-dimethylcarbamoyl-4-[(4'-trifluoromethylbiphenyl-2-carbonyl)amino]phenyl}butyryloxy) benzoic acid propyl ester] |
| 100 | 106 | 3 | 3 | 5 | 2 | COC(=O)c1cc(OC)c(OC(=O)CCCc2ccc(NC(=O)c3ccc(C)nc3-c3ccc(C(F)(F)F)cc3)c(C(=O)N(C)C)c2)c(C(=O)OC)c1 [Compound 1-53, 4-[4-(3-dimethylcarbamoyl-4-{[6-methyl-2-(4-trifluoromethylphenyl)pyridine-3-carbonyl]amino}phenyl)butyryloxy]-5-methoxyisophthalic acid dimethyl ester] |
| 101 | 98 | 0 | 0 | 0 | 0 | COC(=O)c1ccc(OC(=O)CCCc2ccc(NC(=O)c3ccccc3-c3ccc(C(F)(F)F)cc3)c(C(=O)N(C)C)c2)cc1Cl [Compound 1-18, 2-chloro-4-(4-{3-dimethylcarbamoyl-4-[(4'-trifluoromethylbiphenyl-2-carbonyl)amino]phenyl}butyryloxy)benzoic acid methyl ester] |
| 102 | 105 | 53 | 0 | 0 | 0 | CCOC(=O)c1ccc(OC(=O)CCCc2ccc(NC(=O)c3ccc(C)nc3-c3ccc(C(F)(F)F)cc3)c(C(=O)N(C)C)c2)cc1 [Compound 1-71, 4-[4-(3-dimethylcarbamoyl-4-{[6-methyl-2-(4-trifluoromethylphenyl)pyridine-3-carbonyl]amino}phenyl)butyryloxy]benzoic acid ethyl ester] |

| SMILES | remaining at 10 min [1] [%] | remaining at 1 h [1] [%] | remaining at 10 min [2] [%] | remaining at 1 h [2] [%] | remaining at 10 min [3] [%] | remaining at 1 h [3] [%] |
| --- | --- | --- | --- | --- | --- | --- |
| COC(=O)c1ccc(OC(=O)CN(C)Cc2ccc(NC(=O)c3ccccc3-c3ccc(C(F)(F)F)cc3)c(C(=O)N(C)C)c2)cc1 [Compound 2-1, 4-[2-({3-dimethylcarbamoyl-4-[(4'-trifluoromethylbiphenyl-2-carbonyl)amino]benzyl}methylamino)acetoxy]benzoic acid methyl ester] | 95 | 95 | 47 | 0 | 0 | 0 |
